{"source": "paper PMC10950963", "about": "“Anti-leishmanial activity of Eleutherine plicata Herb. and predictions of isoeleutherin and its analogues” (Frontiers in Chemistry, 2024)", "key": {"Allium cepa": {"system": "Allium cepa", "parameters": "method as in Castro et al., 2021a", "settings": "Allium cepa model, 12.5 μg/mL in 72 h; ref Castro et al., 2021a; cited from earlier work"}, "[1]": {"system": "amastigotes of L. donovani", "settings": "ref Kaiser et al., 2000; cited from earlier work"}, "[2]": {"system": "promastigotes of L. amazonensis", "test": "Inhibition of growth/viability of L. amazonensis promastigotes (MTT)", "assay_type": "cell-based", "settings": "Leishmania amazonensis", "method": "Inhibition of Leishmania growth was evaluated in vitro by cultivating promastigotes of L. amazonensis in stationary phase (5×10^6 parasites) in the presence of the extract, fractions and isoeleutherin (200–3.125 μg/mL) in 96-well culture plates (Nunc, Nunclon®, Roskilde, Denmark), for 72 h at 26°C. Viability was assessed by measuring the cleavage of MTT [3-(4,5-dimethylthiazol-2-yl)-2,5-diphenyl tetrazolium bromide] (Sigma) ([Ngure et al., 2009]). Absorbances were measured using a multiwell scanning spectrophotometer (Molecular Devices, Spectra Max Plus, Canada) at 490 nm. Amphotericin B (AmpB) was used as a positive control (25–0.3906 μg/mL). The concentration of products required to inhibit 50% of the viability of L. amazonensis (IC50) was determined by applying a sigmoidal regression of the individual concentration response curves of the compounds. The data are representative of independent experiments, carried out in triplicate, which presented similar results ([Mota et al., 2011])."}, "[3]": {"system": "intracellular amastigote forms of L. amazonensis", "test": "Anti-amastigote assay in infected murine macrophages (Giemsa count)", "assay_type": "cell-based, Leishmania amazonensis", "settings": "500, 250 and 125 μg/mL, 72 h", "method": "Murine macrophages (4 × 10^5 cells) were seeded on round glass coverslips into 24-well culture plates (Nunc) in RPMI 1640 medium (Sigma and Aldrich), supplemented with 20% fetal bovine serum (FBS), 2 mM L-glutamine, penicillin 50 IU/mL, and streptomycin 50 μg/mL, pH 7.4. After 24 h of incubation at 35°C in 5% CO2, promastigotes of L. amazonensis in stationary phase were added to the wells (4 × 10^6 parasites) to promote infection of macrophages, and the cultures were incubated for 4 h at 35°C in 5% CO2. Next, the free parasites were removed by extensive washing with RPMI 1640 medium, and the infected macrophages were quantified and treated with the extract, FA2, FA3, fraction FA4, and isoeleutherin (500–125 μg/mL, each) for 72 h at 35°C in 5% CO2. The negative control consisted of infected macrophages and culture medium. The positive control used AmpB (100–25 μg/mL). Then, coverslips were stained with Giemsa, and the percentage of inhibition of intramacrophage viability of Leishmania was determined by counting the number of amastigotes per 100 macrophages on each coverslip, under a light microscope (×100 magnification). The presented data were performed in triplicate, and the IC50 was determined using GraphPad Prism version 5.04 ([Silva, 2005])."}, "[4]": {"test": "Cytotoxicity to macrophages", "assay_type": "cell-based, mice", "settings": "BALB/c, mouse, peritoneal macrophages"}, "[5]": {"system": "peritoneal macrophages from BALB/c mice", "test": "Cytotoxicity to macrophages", "assay_type": "cell-based", "settings": "peritoneal macrophages from BALB/c mice"}, "[6]": {"system": "Plasmodium falciparum sensitive to chloroquine", "parameters": "method as in Vale et al., 2020", "settings": "ref Vale et al., 2020; cited from earlier work"}, "HepG2": {"system": "HepG2", "parameters": "method as in Gomes et al., 2021", "settings": "exposure for 24 h, compared with EEEp and FDMEp; ref Gomes et al., 2021; cited from earlier work"}, "Th cells": {"system": "Th cells", "parameters": "method as in Hong et al., 2008", "settings": "ref Hong et al., 2008; cited from earlier work"}, "[7]": {"settings": "compared with EEEp and FDCMEp, ref Albuquerque et al., 2023, cited from earlier work"}, "[8]": {"system": "amastigotes of L. amazonensis", "parameters": "method as in Cunha-Junior et al., 2011", "settings": "ref Cunha-Junior et al., 2011; cited from earlier work"}}, "note": "“Also recorded” adds a separate entry of the source. Like-named read-outs stand apart in the source and are kept apart here.", "data": [{"smiles": "COc1cccc2c1C(=O)C1=C(C[C@H](C)O[C@@H]1C)C2=O", "note": "[eleutherin]", "values": [{"measurement": "percentage of chromosomal aberrations", "setting": "Allium cepa", "result": "higher percentage of chromosomal aberrations than isoeleutherin"}]}, {"smiles": "CC1=C(C2=C(C)C(=O)c3ccc(OCc4ccccc4)c(O)c3C2=O)C(=O)c2c(ccc(OCc3ccccc3)c2O)C1=O", "note": "[6,6-Dibenzyloxy-3,3-bi-plumbagin]", "values": [{"measurement": "IC50 for amastigotes of L. donovani", "setting": "[1]", "result": 14.2, "unit": "mg/L"}]}, {"smiles": "COc1cccc2c1C(=O)C1=C(C[C@@H](C)O[C@@H]1C)C2=O", "note": "[Isoeleutherin, isoeleutherin]", "values": [{"measurement": "IC50", "setting": "[2]; parasite form not given, sentence on selectivity index, read-out: IC50 against L. amazonensis", "result": "> 200", "unit": "mg/L"}, {"measurement": "IC50", "setting": "[2]; promastigotes, 72 h at 26°C, MTT, read-out: IC50 against promastigote form of L. amazonensis", "result": 25, "unit": "mg/L"}, {"measurement": "anti-amastigote activity (number of amastigotes in infected macrophages vs negative control)", "setting": "[3]", "result": "No reductions in the number of amastigotes; also recorded: inactive"}, {"measurement": "CC50", "setting": "[4]", "result": "> 500", "unit": "mg/L"}, {"measurement": "cytotoxicity on macrophages (in words)", "setting": "[5]", "result": "did not show cytotoxicity; also recorded: no cytotoxicity"}, {"measurement": "activity in Plasmodium falciparum", "setting": "[6]", "result": "active"}, {"measurement": "cytotoxicity in HepG2", "setting": "HepG2", "result": "the least toxic sample"}, {"measurement": "effect on cytokine production of Th cells", "setting": "Th cells", "result": "selectively stimulating IFNc production"}, {"measurement": "genotoxicity / cytotoxicity in the micronucleus test", "setting": "[7]", "result": "lowest cytotoxicity"}, {"measurement": "genotoxicity / cytotoxicity in the micronucleus test", "setting": "[7]; listed as is eleutherin", "result": "less genotoxic"}]}, {"smiles": "O=C1C2=C(C(=O)c3ccccc31)[C@H]1Oc3ccccc3[C@H]1CO2", "note": "[LQB-118]", "values": [{"measurement": "reduction in the number of amastigotes of L. amazonensis", "setting": "[8]", "result": "concentration-dependent reduction"}]}, {"smiles": "Cc1cc(=O)c2c(C)cc3cc(O)cc(O)c3c2o1", "note": "[eleutherinol, reference compound]", "values": [{"measurement": "effect on cytokine production of Th cells", "setting": "Th cells", "result": "inhibited the production of IFNc and IL-2"}]}, {"smiles": "O=C1C=C(C2=CC(=O)c3cccc(O)c3C2=O)C(=O)c2c(O)cccc21", "note": "[3,3-Bijuglone]", "values": [{"measurement": "IC50 for amastigotes of L. donovani", "setting": "[1]", "result": 15, "unit": "mg/L"}]}, {"smiles": "C[C@@H]1[C@H](O)[C@@H](C)/C=C/C=C/C=C/C=C/C=C/C=C/C=C/[C@H](O[C@@H]2O[C@H](C)[C@@H](O)[C@H](N)[C@@H]2O)C[C@@H]2O[C@](O)(C[C@@H](O)C[C@@H](O)[C@H](O)CC[C@@H](O)C[C@@H](O)CC(=O)O[C@H]1C)C[C@H](O)[C@H]2C(=O)O", "note": "[Amphotericin B, reference compound]", "values": [{"measurement": "CC50", "setting": "[4]", "result": "> 100", "unit": "mg/L"}]}]}
